Results on 1 compound are retold here after patent US9776972B2, “Pyrazole derivatives as arginine methyltransferase inhibitors and uses thereof” (priority 2013, dated 2017).

Assay [1] has as its target human PRMT3 (Homo sapiens, UniProt O60678). Nature of the assay: PRMT3 Biochemical Assay (3H-SAM Flashplate, peptide substrate). Particulars: single experiment or average of multiple experiments. An excerpt:
S-adenosylmethionine (SAM), S-adenosylhomocysteine (SAH), bicine, Tween20, dimethylsulfoxide (DMSO), bovine skin gelatin (BSG), isopropyl-β-D-thiogalactopyranoside (IPTG), and Tris(2-carboxyethyl)phosphine hydrochloride solution (TCEP) were purchased from Sigma-Aldrich at the highest level of purity possible. ^3H-SAM was purchase from American Radiolabeled Chemicals with a specific activity of 80 Ci/mmol. 384-well streptavidin Flashplates were purchased from PerkinElmer.
Peptide containing the classic RMT substrate motif was synthesized with an N-terminal linker-affinity tag motif and a C-terminal amide cap by 21st Century Biochemicals. The peptide was purified by high-performance liquid chromatography (HPLC) to greater than 95% purity and confirmed by liquid chromatography mass spectrometry (LC-MS). The sequence was Biot-Ahx-[…]-amide (SEQ ID NO.:11).
Full-length human PRMT3 (NM_005788.3) isoform 1 transcript clone was amplified from an HEK 293 cDNA library and subcloned into pGEX-KG (GE Life Sciences). The resulting construct encodes an N-terminal GST tag and a thrombin cleavage sequence ([…] […] […] […]) (SEQ ID NO.: 12) fused directly to Cys 2 of PRMT3.
E. coli (BL21(DE3) Gold, Stratagene) made competent by the CaCl2 method were transformed with the PRMT3 construct and ampicillin selection. Protein over-expression was accomplished by growing the PRMT3 expressing E. coli clone and inducing expression with 0.3 mM IPTG at 16° C. The culture was grown for 12 hours, harvested by centrifugation, and stored at −80° C. for purification.
GST-tagged PRMT3 was eluted with 50 mM Tris, 2 mM glutathione, pH 7.1 and 50 mM Tris, 20 mM glutathione, pH 7.1. Pooled fractions were dialysed in 20 mM Tris, 50 mM NaCl, 5% glycerol, 1 mM EDTA, 1 mM DTT, pH7.5 (Buffer B) and applied to a Q Sepharose Fast Flow column. GST-tagged PRMT3 was eluted by 500 mM NaCl in buffer B. Pooled fractions were dialyzed in 25 mM phosphate buffer, 100 mM NaCl, 5% glycerol, 2 mM DTT, pH 6.8 (Buffer C) and loaded on to a ceramic hydroxyapatite column. GST-tagged PRMT3 eluted with 25-400 mM phosphate in buffer C. Protein was concentrated and buffer was exchanged to 20 mM Tris, 150 mM NaCl, 5% glycerol, 5 mM β-mercaptoethanol, pH7.8 by ultrafiltration. The purity of recovered protein was 70%.
General Procedure for PRMT3 Enzyme Assays on Peptide Substrates.
The assays were all performed in a buffer consisting of 20 mM Bicine (pH=7.6), 1 mM TCEP, 0.005% BSG, and 0.002% Tween 20, prepared on the day of use. Compounds in 100% DMSO (1 ul) were spotted into a polypropylene 384-well V-bottom plates (Greiner) using a Platemate Plus outfitted with a 384-channel head (Thermo Scientific). DMSO (1 ul) was added to Columns 11, 12, 23, 24, rows A-H for the maximum signal control and 1 ul of SAH, a known product and inhibitor of PRMT3, was added to columns 11, 12, 23, 24, rows I-P for the minimum signal control. A cocktail (40 ul) containing the PRMT3 enzyme was added by Multidrop Combi (Thermo-Fisher). The compounds were allowed to incubate with PRMT3 for 30 min at room temperature, then a cocktail (10 ul) containing SAM and peptide was added to initiate the reaction (final volume=51 ul). The final concentrations of the components were as follows: PRMT3 was 0.5 nM, ^3H-SAM was 100 nM, non-radiolabeled SAM was 1.8 uM, peptide was 330 nM, SAH in the minimum signal control wells was 1 mM, and the DMSO concentration was 2%. The assays were stopped by the addition of potassium chloride (10 ul) to a final concentration of 100 mM. 50 ul of the reaction in the 384-well polypropylene plate was then transferred to a 384-well Flashplate and the biotinylated peptides were allowed to bind to the streptavidin surface for at least 1 hour before being washed once with 0.1% Tween20 in a Biotek ELx405 plate washer. […]

Assay [2] concerns mono-methyl arginine in RKO cells. Nature of the assay: RKO Methylation Assay, In Cell Western (ICW) for mono-methyl arginine and DNA content. The format is cell-based. The settings on record: Homo sapiens, RKO, 72 h, RKO cells, 72 hours, mono-methyl arginine, percent activation; single experiment or average of multiple experiments; read-out: EC30 (In Cell Western data, Numerical). An excerpt:
RKO adherent cells were purchased from ATCC (American Type Culture Collection), Manassas, Va., USA. DMEM/Glutamax medium, penicillin-streptomycin, heat inactivated fetal bovine serum, 0.05% trypsin and D-PBS were purchased from Life Technologies, Grand Island, N.Y., USA. Odyssey blocking buffer, 800CW goat anti-rabbit IgG (H+L) antibody, and Licor Odyssey infrared scanner were purchased from Licor Biosciences, Lincoln, Nebr., USA. Mono-methyl arginine antibody was purchased from Cell Signaling Technology, Danvers, Mass., USA. Methanol was purchased from VWR, Franklin, Mass., USA. 10% Tween 20 was purchased from KPL, Inc., Gaithersburg, Md., USA. DRAQ5 was purchased from Biostatus Limited, Leicestershire, UK.
RKO adherent cells were maintained in growth medium (DMEM/Glutamax medium supplemented with 10% v/v heat inactivated fetal bovine serum and 100 units/mL penicillin-streptomycin) and cultured at 37° C. under 5% CO2.
Cell Treatment, in Cell Western (ICW) for Detection of Mono-Methyl Arginine and DNA Content.
RKO cells were seeded in assay medium at a concentration of 20,000 cells per mL to a poly-D-lysine coated 384 well culture plate (BD Biosciences 356697) with 50 μL per well. Compound (100 nL) from a 96-well source plate was added directly to 384 well cell plate. Plates were incubated at 37° C., 5% CO2 for 72 hours. After three days of incubation, plates were brought to room temperature outside of the incubator for ten minutes and blotted on paper towels to remove cell media. 50 μL of ice cold 100% methanol was added directly to each well and incubated for 30 min at room temperature. After 30 min, plates were transferred to a Biotek EL406 plate washer and washed 2 times with 100 μL per well of wash buffer (1×PBS). Next 60 μL per well of Odyssey blocking buffer (Odyssey Buffer with 0.1% Tween 20 (v/v)) were added to each plate and incubated 1 hour at room temperature. Blocking buffer was removed and 20 μL per well of primary antibody was added (mono-methyl arginine diluted 1:200 in Odyssey buffer with 0.1% Tween 20 (v/v)) and plates were incubated overnight (16 hours) at 4° C. Plates were washed 5 times with 100 μL per well of wash buffer. Next 20 μL per well of secondary antibody was added (1:200 800CW goat anti-rabbit IgG (H+L) antibody, 1:1000 DRAQ5 (Biostatus limited) in Odyssey buffer with 0.1% Tween 20 (v/v)) and incubated for 1 hour at room temperature. The plates were washed 5 times with 100 μL per well wash buffer then 2 times with 100 μL per well of water. Plates were allowed to dry at room temperature then imaged on the Licor Odyssey machine which measures integrated intensity at 700 nm and 800 nm wavelengths. Both 700 and 800 channels were scanned.
First, the ratio for each well was determined by:
Each plate included fourteen control wells of DMSO only treatment (minimum activation) as well as fourteen control wells for maximum activation treated with 20 μM of a reference compound. The average of the ratio values for each control type was calculated and used to determine the percent activation for each test well in the plate. Reference compound was serially diluted three-fold in DMSO for a total of nine test concentrations, beginning at 20 μM. Percent activation was determined and EC30 curves were generated using triplicate wells per concentration of compound.

Chain of human PRMT3 (O60678 with tags, fused parts or gaps): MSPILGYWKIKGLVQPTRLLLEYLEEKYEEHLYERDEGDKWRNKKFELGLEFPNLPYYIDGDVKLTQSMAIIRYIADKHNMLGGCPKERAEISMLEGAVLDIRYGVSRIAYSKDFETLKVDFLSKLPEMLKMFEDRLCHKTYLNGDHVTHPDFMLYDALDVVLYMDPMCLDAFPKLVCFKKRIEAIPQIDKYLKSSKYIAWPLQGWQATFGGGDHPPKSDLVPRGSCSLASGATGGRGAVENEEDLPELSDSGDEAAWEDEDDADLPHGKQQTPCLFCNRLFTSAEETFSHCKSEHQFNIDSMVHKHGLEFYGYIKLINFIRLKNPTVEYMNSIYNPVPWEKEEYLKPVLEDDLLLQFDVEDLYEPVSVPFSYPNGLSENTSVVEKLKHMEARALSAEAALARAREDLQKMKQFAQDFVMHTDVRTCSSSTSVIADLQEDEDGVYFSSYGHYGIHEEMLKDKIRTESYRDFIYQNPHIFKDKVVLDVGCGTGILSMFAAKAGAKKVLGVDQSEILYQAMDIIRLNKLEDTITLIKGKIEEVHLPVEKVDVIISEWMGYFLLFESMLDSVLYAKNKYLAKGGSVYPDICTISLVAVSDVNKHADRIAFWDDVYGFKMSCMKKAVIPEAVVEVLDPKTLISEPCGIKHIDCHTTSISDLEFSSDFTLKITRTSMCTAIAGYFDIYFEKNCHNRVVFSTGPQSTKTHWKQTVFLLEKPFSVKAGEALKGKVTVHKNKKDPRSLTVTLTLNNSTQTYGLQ

One may read the IC50 as the concentration needed to halve the response being measured. Low values mean greater potency in that assay, high ones weaker potency in that assay. Broadly, the EC30 is the concentration at which the effect reaches the 30% level. In assay [1], `CC(C)Cc1ccc(-c2n[nH]cc2CN(C)CCN)cc1` [Compound 165] showed an IC50 of 1.73 µM. The EC30 in assay [2] turned out to be 0.66 µM.
